The text below walks through data of patent US6239128A, “Indole-2,3-dione-3-oxime derivatives for therapeutic use” (Neurosearch A/S, priority 1998, dated 2001).

The assay concerns the target AMPA receptor. Briefly: in vitro receptor affinity test: inhibition of specific binding of ^3 H-AMPA. On the set-up: species or system male Wistar rats (cerebral cortex). The settings on record: rat cerebral cortex membranes; ^3 H-AMPA 5 nM; 30 minutes at 2° C.; 30 mM Tris-HCl, 2.5 mM CaCl2, 100 mM KSCN, pH 7.4; read-out: IC50 (the concentration (μM) of the test substance which inhibits the specific binding of ^3 H-AMPA by 50%). From the text:
In an in vitro activity (receptor affinity) test, the chemical compounds of the present invention have been tested for their affinity for the AMPA receptor.
L-glutamate (GLU) is the major excitatory neurotransmitter in the mammalian central nervous system. From electro-physiological- and binding studies, there appear to be at least three subtypes of GLU receptors, tentatively named N-methyl-D-aspartate (NMDA) receptors, quisqualate receptors and kainate receptors. AMPA has been known for several years to be a potent and selective agonist at the traditionally named quisqualate receptors. Activation of quisqualate receptors by AMPA is associated with Na^+ influx and K^+ efflux leading to depolarisation. ^3 H-AMPA is a selective radioligand for labelling the ionotropic quisqualate (AMPA) receptors.
Preparations are performed at 0-4° C. unless otherwise indicated. Cerebral cortex from male Wistar rats (150-200 g) is homogenised for 5-10 sec in 20 ml Tris-HCl (30 mM, pH 7.4) using an Ultra-Turrax™ homogeniser. The suspension is centrifuged at 27,000×g for 15 minutes and the pellet is washed three times with buffer (centrifuged at 27,000×g for 10 minutes). The washed pellet is homogenised in 20 ml of buffer and incubated on a water bath (of 37° C) for 30 minutes to remove endogenous glutamate and then centrifuged for 10 minutes at 27,000×g. The pellet is then homogenised in buffer and centrifuged at for 10 minutes at 27,000×g. The final pellet is resuspended in 30 ml buffer and the preparation is frozen and stored at -20° C.
The membrane preparation is thawed and centrifuged at 2° C. for 10 minutes at 27,000×g. […] Non-specific binding is determined using L-glutamate (0.6 mM, final concentration).
After incubation the 550 μl samples are added 5 ml of ice-cold buffer and poured directly onto Whatman™ GF/C glass fibre filters under suction and immediately washed with 5 ml of ice-cold buffer. […] The amount of radioactivity on the filters is determined by conventional liquid scintillation counting. […]
For the compound `CN1CCc2c(-c3ccc(S(=O)(=O)N(C)C)cc3)cc3c(c2C1)NC(=O)C3=NOC(CCO)C(=O)O` (stereo not drawn) [8-methyl-5-(4-(N,N-dimethylsulfamoyl)phenyl)-6-7-8-9-tetrahydro-1H-pyrrolo[3,2-h]isoquinoline-2,3-dione-3-O-(4-hydroxybutyric acid-2-yl)oxime], the IC50 was 0.05 µM.

Consider `CCOC(=O)CON=C1C(=O)Nc2c1cc(-c1ccc(S(=O)(=O)N(C)C)cc1)c1c2CN(C)CC1` [8-methyl-5-(4-(N,N-dimethylsulphamoyl)phenyl-6,7,8,9-tetrahydro-1H-pyrrolo[3,2-h]isoquinoline-2,3-dione-3-O-(ethoxycarbonylmethyl)oxime], for which the IC50 was determined as 0.1 µM.

With `CN1CCc2c(-c3ccc(S(=O)(=O)N(C)C)cc3)cc3c(c2C1)NC(=O)C3=NOC1CCOC1=O` (stereo not drawn) [8-methyl-5-(4-(N,N-dimethylsulfamoyl)phenyl)-6-7-8-9-tetrahydro-1H-pyrrolo[3,2-h]-isoquinoline-2,3-dione-3-O-(3-(2-oxo)tetrahydrofuryl)oxime], the IC50 worked out at 0.15 µM.
